pEC50, pIC50: −log10 of the molar value. Structures can show the parent of a compound that is named as a salt. Where two headings read alike, the source gives them in different places. A value given as a limit tells only on which side of the number the result lay.

For one data set, the system named is Nrf2-ARE pathway. In words: ARE reporter assay in CHO 4xARE-TK-GFP cells (Spectrum library hits). The following applies: for maximal fold induction: CHO, read-out: Fold GFP induction. As for the experimental part: The Z′ score was calculated as follows Z′=1−(3SD^++3SD^−)/(Ave^+–Ave^−) where SD^+ = standard deviation of positive control wells; SD^− = standard deviation of negative control wells; Ave^+ = average fluorescence reading of positive control wells; Ave^− = average fluorescence reading of negative control wells.
Media was removed by hand and replaced (1 compound/well) with the Spectrum library diluted to 10 μM in 0.1% DMSO using a Q-bot liquid handling system (Genetix, New Milton, UK). […] The TK-GFP CHO ARE cell line was screened twice in a single point assay and the control TK-GFP CHO cell line was screened once to eliminate false positives.
The compounds were applied in triplicate to confluent cells in 96 well plates in serum free medium for 24 hours and the induction of GFP measured in a fluorescence plate reader.
In order to screen the Spectrum collection of 2000 molecules the reporter assay was optimised in […]. To assess the suitability of the assay for library screening, a Z’ score calculation was performed by treating alternate wells with vehicle (0.1% DMSO) and 10 µM Ebselen as a positive control (see calculation in Methods). […] The library was subsequently screened at a single point concentration of 10µM for every compound. Drug library dilutions and plating were performed with a Q-BOT liquid handling system and both the 4xARE-TK-GFP reporter cell line and TK-GFP control cell line were tested for their response to the compounds. Hits were identified as having data points more than three standard deviations above the background level, which was the average value of 24 wells treated with vehicle (0.1% DMSO) only. Hit compounds were checked to see if they generated a response in the control cell line, for example by non-specific activation of transcription or autofluorescence. […] The library screen was repeated once in the 4xARE –TK-CHO cell line and compounds classed as hits in both screens were taken forward for further assessment.

In data set [1] the test system is NSC34 cells. In words: NSC34 oxidative stress assay (serum withdrawal, DCF). The following applies: for Emax: Mus musculus, NSC-34, 24 h, read-out: NSC34 oxidative stress assay Max reduction; for NSC34 oxidative stress assay Toxic dose: minimum dose at which toxicity was observed; for NSC34 oxidative stress assay Max reduction: maximum % inhibition of DCF signal, negative = prooxidant.
Protocol: (§1) Media were then replaced with serum-free, phenol-free media for 5 h.

Data set [2] has as its system 1321N1 astrocyte cell line. Put plainly: 1321N1 oxidative stress assay (serum withdrawal, DCF). As to conditions: for Emax: 1321-N1, 24 h, read-out: 1321N1 oxidative stress assay Max reduction; for 1321N1 oxidative stress assay Toxic dose: minimum dose at which toxicity was observed; for 1321N1 oxidative stress assay Max reduction: maximum % inhibition of DCF signal.
Protocol: as §1
The test system of data set [3] is NSC34 cells.
Protocol: as §1
Data set [4] deals with C6 astrocyte cell line. In words: C6 oxidative stress assay (serum withdrawal, DCF). As to conditions: for Emax: 24 h, read-out: C6 oxidative stress assay Max reduction; for pIC50: read-out: C6 oxidative stress assay IC50; for C6 oxidative stress assay Toxic dose: minimum dose at which toxicity was observed; for C6 oxidative stress assay Max reduction: maximum % inhibition of DCF signal.
Protocol: as §1

Data set [5] concerns C6 astrocyte cell line.
Protocol: as §1
The test system of data set [6] is 1321N1 astrocyte cell line.
Protocol: as §1
Where [7] appears, read: lowest dose at which a reduction in GFP fluorescence was observed.
[8] abbreviates: Homo sapiens, 1321-N1, read-out: 1321N1 oxidative stress assay IC50.
The mark [9] stands for this setting: CHO ARE reporter, 7-point concentration response.
[10] abbreviates: 24-h preconditioning, 6-h serum withdrawal, DCF fluorescence.
Where [11] appears, read: average fold over baseline at the maximal response, CHO cells, 24 h.

As to `C=C(C)C1(O)OC(=O)C=C1OC` (stereo not shown) [Penicillic acid], in the data set with Nrf2-ARE pathway (Chinese hamster), the Toxic dose worked out at 100 µM. This compound showed a pEC50 in the data set with Nrf2-ARE pathway (Cricetulus griseus) of 4.83. Besides, in the data set with Nrf2-ARE pathway (Cricetulus griseus, 24 h), the maximal fold induction was determined as 2.64. The Emax in the data set with NSC34 cells [1] amounted to 9%; in data set [2] (Homo sapiens), 45%; with C6 astrocyte cell line [4] (Rattus norvegicus, Astrocyte), 68%. For the same compound, in the data set with NSC34 cells [3], the “NSC34 oxidative stress assay Toxic dose” value is recorded as “none”. In addition, in the data set with C6 astrocyte cell line [4] (Rattus norvegicus, Astrocyte), the pIC50 is 5.34. Besides, the “C6 oxidative stress assay Toxic dose” value with C6 astrocyte cell line [5] is “none”. In addition, the “1321N1 oxidative stress assay Toxic dose” value in data set [6] is recorded as “none”.
Take `O=C(CCBr)N1CCN(C(=O)CCBr)CC1` [Pipobroman, reference compound]: the pEC50 in the data set with Nrf2-ARE pathway (Cricetulus griseus) is 5.00. The compound also showed a Toxic dose in the data set with Nrf2-ARE pathway (setting [7]) of 100 µM. Moreover, the Emax in the data set with NSC34 cells [1] is 30%; in data set [2] (Homo sapiens), 19%; in the data set with C6 astrocyte cell line [4] (Rattus norvegicus, Astrocyte) it was 71%. The pIC50 in data set [2] (setting [8]) was 5.50; with C6 astrocyte cell line [4] (Rattus norvegicus, Astrocyte), 4.96. Besides, the “NSC34 oxidative stress assay Toxic dose” value in the data set on NSC34 cells [3] was “none”. Besides, the “C6 oxidative stress assay Toxic dose” value in the data set with C6 astrocyte cell line [5] is “none”. Further, the “1321N1 oxidative stress assay Toxic dose” value in data set [6] (human) is 10 µM.
The compound `CC(=O)CCC(=O)O` [Levulinic acid] had a pEC50 with Nrf2-ARE pathway (Cricetulus griseus) of 4.92. For the same compound, the Toxic dose entry with Nrf2-ARE pathway (setting [7]) was “None”. The Emax with NSC34 cells [1] was found to be 15%; in data set [2] (Homo sapiens), 58%; in the data set on C6 astrocyte cell line [4] (Rattus norvegicus, Astrocyte), 62%. In addition, the pIC50 is 5.48 in data set [2] (setting [8]) and 5.11 with C6 astrocyte cell line [4] (Rattus norvegicus, Astrocyte). Moreover, the “NSC34 oxidative stress assay Toxic dose” value in the data set with NSC34 cells [3] was “None”. The “C6 oxidative stress assay Toxic dose” value in the data set with C6 astrocyte cell line [5] is given as “None”. In data set [6], the “1321N1 oxidative stress assay Toxic dose” value was “None”.
In turn, `CC1=CC(=O)C(C(C)C)=CC1=O` [Thymoquinone] yielded a Toxic dose in the data set on Nrf2-ARE pathway (setting [7]) of 30 µM. Moreover, the Emax in the data set with NSC34 cells [1] was found to be 0%; in data set [2] (Homo sapiens), 25%; with C6 astrocyte cell line [4] (Rattus norvegicus, Astrocyte), 32%. For the same compound, the “NSC34 oxidative stress assay Toxic dose” value with NSC34 cells [1] is listed as “None”. Further, the pIC50 in data set [2] (setting [8]) was 4.96; in the data set on C6 astrocyte cell line [4] (Rattus norvegicus, Astrocyte), 7.85. Also, in data set [2], the “1321N1 oxidative stress assay Toxic dose” value is reported as “None”. In addition, the “C6 oxidative stress assay Toxic dose” value with C6 astrocyte cell line [4] is “None”.
As for `C[C@@H]1C(=O)O[C@H]2[C@H]1CC[C@@]1(C)C=CC(=O)[C@@]3(C)O[C@@]213` [Epoxy(4,5α)-4,5-dihydrosantonin], in the data set with Nrf2-ARE pathway, the “Fold GFP induction” value was found to be 2.91 fold and the Toxic dose came to 100 µM. In the data set with Nrf2-ARE pathway (setting [9]), this compound gave a pEC50 of 4.74. The “NSC34 oxidative stress assay Max reduction” value in the data set on NSC34 cells [1] amounted to 0%. Further, in data set [2], the “1321N1 oxidative stress assay Max reduction” value is on record as 63%. In data set [2] (read-out: 1321N1 oxidative stress assay IC50, 24-h preconditioning, 6-h serum withdrawal, DCF fluorescence), the pIC50 was 6.18. Moreover, in the data set with NSC34 cells [3], the “NSC34 oxidative stress assay Toxic dose” value stood at 3 µM. In the data set on C6 astrocyte cell line [4], the “C6 oxidative stress assay Max reduction” value was 62%. In the data set on C6 astrocyte cell line [4] (setting [10]), the pIC50 is 5.67. Besides, the “C6 oxidative stress assay Toxic dose” value with C6 astrocyte cell line [5] is “None”. Also, the “1321N1 oxidative stress assay Toxic dose” value in data set [6] is reported as “None”.
Compound `COc1ccc(/C=C/C(=O)c2ccccc2)cc1` [4-Methoxychalcone] had a pEC50 in the data set on Nrf2-ARE pathway (Cricetulus griseus) of 4.82. For the same compound, the “Fold GFP induction” value in the data set on Nrf2-ARE pathway (setting [11]) is 2.13 fold. The compound also displayed a Toxic dose with Nrf2-ARE pathway (setting [7]) of 100 µM. Moreover, the Emax in the data set on NSC34 cells [1] amounted to 24%; in data set [2] (Homo sapiens) it was 30%; with C6 astrocyte cell line [4] (Rattus norvegicus, Astrocyte), 82%. In the data set on NSC34 cells [1], the “NSC34 oxidative stress assay Toxic dose” value was “None”. In addition, the pIC50 is 5.44 in data set [2] (setting [8]) and 5.45 with C6 astrocyte cell line [4] (Rattus norvegicus, Astrocyte). The “1321N1 oxidative stress assay Toxic dose” value in data set [2] is given as “None”. Besides, the “C6 oxidative stress assay Toxic dose” value with C6 astrocyte cell line [4] is reported as “None”.
`CC(COc1ccccc1)NC(C)C(O)c1ccc(O)cc1` (stereo not shown) [Isoxsuprine hydrochloride, reference compound] yielded a Toxic dose with Nrf2-ARE pathway (setting [7]) of 100 µM. Also, in the data set with NSC34 cells [1], the Emax was -16% and the “NSC34 oxidative stress assay Toxic dose” value is “none”. Further, the “1321N1 oxidative stress assay Toxic dose” value in data set [2] is given as “none”. Besides, in the data set with C6 astrocyte cell line [4] (Rattus norvegicus, Astrocyte), the Emax was determined as 40% and the pIC50 was 4.64. Moreover, the “C6 oxidative stress assay Toxic dose” value in the data set with C6 astrocyte cell line [4] was “none”.
As for `O=C(/C=C/c1ccc(O)cc1)c1ccc(O)cc1O` [Isoliquiritigenin], the negative logarithm of the EC50 (pEC50) with Nrf2-ARE pathway (Cricetulus griseus) was 5.60. In addition, in the data set with Nrf2-ARE pathway (setting [7]), the Toxic dose came out at 30 µM. In addition, the Emax in the data set with NSC34 cells [1] is -6%; in data set [2] (Homo sapiens), 50%; in the data set with C6 astrocyte cell line [4] (Rattus norvegicus, Astrocyte), 46%. Also, the “NSC34 oxidative stress assay Toxic dose” value in the data set with NSC34 cells [1] is 1 µM. The pIC50 in data set [2] (setting [8]) is 5.75; with C6 astrocyte cell line [4] (Rattus norvegicus, Astrocyte), 4.55. The “1321N1 oxidative stress assay Toxic dose” value in data set [2] is given as “none”. Also, the “C6 oxidative stress assay Toxic dose” value in the data set with C6 astrocyte cell line [4] is given as “none”.
Regarding `O=C1C=C2C=C[C@@H]3C[C@@]2(O1)[C@H]1CCCCN31` [Securinine], the pEC50 in the data set on Nrf2-ARE pathway (Cricetulus griseus) was 5.67. For the same compound, in the data set on Nrf2-ARE pathway (Cricetulus griseus, 24 h), the maximal fold induction is 3. The Toxic dose in the data set with Nrf2-ARE pathway (setting [7]) was found to be 30 µM. In addition, the Emax in the data set with NSC34 cells [1] was found to be 20%; in data set [2] (Homo sapiens), 55%; with C6 astrocyte cell line [4] (Rattus norvegicus, Astrocyte), 67%. Moreover, in the data set on NSC34 cells [1], the “NSC34 oxidative stress assay Toxic dose” value was “None”. The pIC50 is 4.74 in data set [2] (setting [8]) and 6.19 in the data set with C6 astrocyte cell line [4] (Rattus norvegicus, Astrocyte). Further, in data set [2], the “1321N1 oxidative stress assay Toxic dose” value is given as “None”. In addition, the “C6 oxidative stress assay Toxic dose” value in the data set on C6 astrocyte cell line [4] is reported as “None”.
In the case of `Oc1ccc(O)cc1` [Hydroquinone, reference compound], the pEC50 with Nrf2-ARE pathway (Cricetulus griseus) is 5.51. This compound gave a Toxic dose with Nrf2-ARE pathway (setting [7]) of 100 µM. The Emax with NSC34 cells [1] turned out to be 0%; in data set [2] (Homo sapiens), 80%; in the data set on C6 astrocyte cell line [4] (Rattus norvegicus, Astrocyte), 67%. Also, the pIC50 was 5.47 in data set [2] (setting [8]) and 5.15 in the data set on C6 astrocyte cell line [4] (Rattus norvegicus, Astrocyte). The “NSC34 oxidative stress assay Toxic dose” value with NSC34 cells [3] is recorded as “None”. Besides, the “C6 oxidative stress assay Toxic dose” value with C6 astrocyte cell line [5] is on record as “None”. Moreover, the “1321N1 oxidative stress assay Toxic dose” value in data set [6] is “None”.
In turn, “Methyl-7-deshydroxypyrogallin-4-carboxylate” had a pEC50 in the data set on Nrf2-ARE pathway (setting [9]) of less than 4.00. For the same compound, the “Fold GFP induction” value in the data set with Nrf2-ARE pathway (setting [11]) came out at 2.83 fold. In addition, the Toxic dose with Nrf2-ARE pathway (setting [7]) was 100 µM. Moreover, in the data set on NSC34 cells [1], the “NSC34 oxidative stress assay Max reduction” value was -23% and the “NSC34 oxidative stress assay Toxic dose” value is 0.3 µM. Besides, in data set [2], the “1321N1 oxidative stress assay Max reduction” value is recorded as 45% and the “1321N1 oxidative stress assay Toxic dose” value is “none”. Also, in the data set with C6 astrocyte cell line [4], the “C6 oxidative stress assay Max reduction” value turned out to be 70% and the “C6 oxidative stress assay Toxic dose” value was “none”. The pIC50 with C6 astrocyte cell line [4] (setting [10]) is 5.53.

Values taken from article PMC3684770 (Free Radical Biology & Medicine, 2013).
